From ChEMBL document CHEMBL4421727, “Small molecule inhibitors of 8-oxoguanine dna glycosylase-1 (ogg1)” (2017) come the findings set out here.

In assay [1] the target is T1, Endonuclease 8-like 1 (Homo sapiens, UniProt Q96FI4). The assay can be described thus: Inhibition of NEIL1 (unknown origin) assessed as remaining enzyme activity at 50 uM using Sp/Gh substrate incubated for 40 mins by TAMRA fluorescence-based assay.
For assay [2], the target named is T2, Endonuclease III-like protein 1 (Homo sapiens) (UniProt P78549).
T2 sequence (whole entry): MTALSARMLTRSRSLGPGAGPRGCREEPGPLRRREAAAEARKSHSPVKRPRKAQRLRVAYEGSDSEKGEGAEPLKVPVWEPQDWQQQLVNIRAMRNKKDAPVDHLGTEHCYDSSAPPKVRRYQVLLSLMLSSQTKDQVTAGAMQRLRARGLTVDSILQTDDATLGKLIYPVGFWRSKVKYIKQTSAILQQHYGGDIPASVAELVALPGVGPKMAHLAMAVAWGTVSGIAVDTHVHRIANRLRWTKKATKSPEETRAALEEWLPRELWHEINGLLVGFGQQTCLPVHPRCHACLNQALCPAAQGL
Put plainly: Inhibition of NTH1 (unknown origin) assessed as remaining enzyme activity at 50 uM incubated for 40 mins by TAMRA fluorescence-based assay.

Assay [3] has as its target T3, Formamidopyrimidine-DNA glycosylase (Escherichia coli (strain K12)) (UniProt P05523).
T3 sequence (whole entry): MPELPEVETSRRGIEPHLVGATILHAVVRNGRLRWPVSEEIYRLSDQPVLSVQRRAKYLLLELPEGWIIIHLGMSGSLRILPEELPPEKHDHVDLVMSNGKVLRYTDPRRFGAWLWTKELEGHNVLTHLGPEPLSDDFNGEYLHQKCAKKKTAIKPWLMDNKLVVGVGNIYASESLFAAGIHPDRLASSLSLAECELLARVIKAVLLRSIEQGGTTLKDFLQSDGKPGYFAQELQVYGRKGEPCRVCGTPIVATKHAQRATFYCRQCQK
The assay can be described thus: Inhibition of Escherichia coli FPG assessed as remaining enzyme activity at 50 uM using 8-oxo-Gua substrate incubated for 10 mins by TAMRA fluorescence-based assay.

For assay [4], the target named is T4, N-glycosylase/DNA lyase (Homo sapiens, UniProt O15527). The assay can be described thus: Inhibition of human OGG1 assessed as reduction in AP lyase activity using AP-containing substrate.
T4 sequence (O15527 whole entry): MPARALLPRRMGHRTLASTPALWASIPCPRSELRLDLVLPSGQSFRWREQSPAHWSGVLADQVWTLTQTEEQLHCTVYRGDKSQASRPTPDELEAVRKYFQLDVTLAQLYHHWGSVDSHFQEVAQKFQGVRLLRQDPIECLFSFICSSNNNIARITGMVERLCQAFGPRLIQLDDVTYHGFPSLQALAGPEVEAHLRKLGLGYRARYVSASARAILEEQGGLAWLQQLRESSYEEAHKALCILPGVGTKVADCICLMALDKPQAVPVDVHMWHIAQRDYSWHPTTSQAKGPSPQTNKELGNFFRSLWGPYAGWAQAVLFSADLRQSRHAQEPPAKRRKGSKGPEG
In assay [5] the target is T4, N-glycosylase/DNA lyase. The assay can be described thus: Inhibition of human OGG1 assessed as reduction in free 8-oxo-Gua release using gamma-irradiated calf thymus DNA substrate incubated for 1 hr by GC-MS/MS assay.
Assay [6] addresses T4, N-glycosylase/DNA lyase. Put plainly: Inhibition of human OGG1 assessed as reduction in free Inhibition of human OGG1 assessed as reduction in free FapyGua release using gamma-irradiated calf thymus DNA substrate incubated for 1 hr by GC-MS/MS assay.
Assay [7] deals with T1, Endonuclease 8-like 1. Put plainly: Inhibition of NEIL1 (unknown origin) using Sp/Gh substrate incubated for 40 mins by TAMRA fluorescence-based assay.
Assay [8] deals with T5, Endonuclease III-like protein 1 (Homo sapiens, UniProt P78549).
T5 sequence (P78549 whole entry): T2 sequence (whole entry)
Put plainly: Inhibition of NTH1 (unknown origin) incubated for 40 mins by TAMRA fluorescence-based assay.

Assay [9] deals with T6, Formamidopyrimidine-DNA glycosylase (Escherichia coli (strain K12), UniProt P05523).
T6 sequence (P05523 whole entry): T3 sequence (whole entry)
Put plainly: Inhibition of Escherichia coli FPG using 8-oxo-Gua substrate incubated for 10 mins by TAMRA fluorescence-based assay.

The species entered for assay [10] is Homo sapiens. The assay can be described thus: Selectivity index, ratio of IC50 for inhibition of NEIL1 (unknown origin) using Sp/Gh substrate incubated for 40 mins by TAMRA fluorescence-based assay to IC50 for inhibition of human OGG1 incubated for 30 mins using 8-oxo-Gua-containing substrate by TAMRA fluorescence-based assay.
The species entered for assay [11] is Homo sapiens. The assay can be described thus: Selectivity index, ratio of IC50 for inhibition of NTH1 (unknown origin) incubated for 40 mins by TAMRA fluorescence-based assay to IC50 for inhibition of human OGG1 incubated for 30 mins using 8-oxo-Gua-containing substrate by TAMRA fluorescence-based assay.
Assay [12] in a line: Selectivity index, ratio of IC50 for inhibition of Escherichia coli FPG using 8-oxo-Gua substrate incubated for 10 mins by TAMRA fluorescence-based assay to IC50 for inhibition of human OGG1 incubated for 30 mins using 8-oxo-Gua-containing substrate by TAMRA fluorescence-based assay.
Assay [13] addresses T1, Endonuclease 8-like 1. The assay can be described thus: Inhibition of NEIL1 (unknown origin) assessed as effect on DNA lesions per 10^6 DNA bases using FapyAde substrate incubated for 1 hr by GC-MS/MS assay.
Assay [14] addresses T1, Endonuclease 8-like 1. The assay can be described thus: Inhibition of NEIL1 (unknown origin) assessed as effect on DNA lesions per 10^6 DNA bases using FapyGua substrate incubated for 1 hr by GC-MS/MS assay.
For assay [15], the target named is T1, Endonuclease 8-like 1. Put plainly: Inhibition of NEIL1 (unknown origin) assessed as effect on DNA lesions per 10^6 DNA bases using 5-OH-5-MeHyd substrate incubated for 1 hr by GC-MS/MS assay.
Assay [16] addresses T2, Endonuclease III-like protein 1 (Homo sapiens). The assay can be described thus: Inhibition of NTH1 (unknown origin) assessed as effect on DNA lesions per 10^6 DNA bases using FapyAde substrate incubated for 1 hr by GC-MS/MS assay.
Assay [17] has the same target. The assay can be described thus: Inhibition of NTH1 (unknown origin) assessed as effect on DNA lesions per 10^6 DNA bases using FapyGua substrate incubated for 1 hr by GC-MS/MS assay.
Assay [18] shares this target. Put plainly: Inhibition of NTH1 (unknown origin) assessed as effect on DNA lesions per 10^6 DNA bases using 5-OH-5-MeHyd substrate incubated for 1 hr by GC-MS/MS assay.
Assay [19] has the same target. The assay can be described thus: Inhibition of NTH1 (unknown origin) assessed as effect on DNA lesions per 10^6 DNA bases using thymine glycol substrate incubated for 1 hr by GC-MS/MS assay.
The target is the same in assay [20]. Put plainly: Inhibition of NTH1 (unknown origin) assessed as effect on DNA lesions per 10^6 DNA bases using 5-hydroxycytosine substrate incubated for 1 hr by GC-MS/MS assay.
Assay [21] in a line: Binding affinity to duplex DNA (unknown origin) assessed as induction of DNA intercalation at 50 uM incubated for 30 mins by gel electrophoresis.
The target of assay [22] is T4, N-glycosylase/DNA lyase. Put plainly: Inhibition of human OGG1 assessed as protection against NaOH-mediated strand cleavage using AP-containing substrate. On the set-up: scale not given: the % may be the effect or the level left.
Assay [23] concerns the target T3, Formamidopyrimidine-DNA glycosylase (Escherichia coli (strain K12)). The assay can be described thus: Inhibition of Escherichia coli FPG assessed as reduction in enzyme-mediated incision using compound pre-incubated with 8-oxo-Gua substrate for 30 mins at 37 degC followed by enzyme addition.
Assay [24] shares this target. Put plainly: Inhibition of Escherichia coli FPG assessed as reduction in enzyme-mediated incision using compound pre-incubated with AP-site containing DNA substrate for 30 mins at 37 degC followed by enzyme addition.
In assay [25] the target is T4, N-glycosylase/DNA lyase. Put plainly: Inhibition of human OGG1 binding to 8-oxo-Gua substrate using compound pre-incubated with enzyme for 5 to 10 mins before substrate addition and further incubated for 5 mins by native gel electrophoresis based by gel-shift assay.
The target of assay [26] is T4, N-glycosylase/DNA lyase. The assay can be described thus: Inhibition of human OGG1 catalytic activity assessed as reduction trapping of substrates at 10 uM using 8-oxo-Gua substrate in presence of sodium cyno-borohydride by gel electrophoresis method.
In assay [27] the target is T4, N-glycosylase/DNA lyase. Put plainly: Inhibition of human OGG1 catalytic activity assessed as reduction trapping of substrates at 10 uM using AP site containing substrate in presence of sodium cyno-borohydride by gel electrophoresis method.

Calls of active or inactive are those of the source. The calls are words filed in the database; no cut-off is given here.

T1 sequence (Q96FI4 whole entry): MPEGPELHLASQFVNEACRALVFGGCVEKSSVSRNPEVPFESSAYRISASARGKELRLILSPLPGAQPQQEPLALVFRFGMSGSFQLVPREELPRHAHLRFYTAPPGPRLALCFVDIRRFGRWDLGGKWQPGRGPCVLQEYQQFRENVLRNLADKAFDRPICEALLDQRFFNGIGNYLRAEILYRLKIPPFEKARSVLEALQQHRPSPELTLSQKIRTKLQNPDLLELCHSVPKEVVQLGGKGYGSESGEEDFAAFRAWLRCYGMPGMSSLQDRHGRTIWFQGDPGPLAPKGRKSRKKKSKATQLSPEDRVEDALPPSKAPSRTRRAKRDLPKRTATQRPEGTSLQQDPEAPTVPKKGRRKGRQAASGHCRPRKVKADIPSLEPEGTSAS

Consider `O=C(NN=C1CCCCC1)c1cc2ccccc2cc1O`, for which the Activity came out at 87.4% in [1], 83% in assay [2], 77% in assay [3] and 10% in assay [22]. In addition, the inhibition result in [4], in [5], in assay [6], in [26] and in assay [27] was “Active” throughout. Also, the IC50 in [7], in assay [8] and in [9] was more than 50 µM throughout. For the same compound, the Ratio IC50 in assay [10], in [11] and in assay [12] was more than 200 each time. The inhibition result in assay [13], in [14], in assay [15], in assay [16], in [17] and in assay [18] was “inactive” in each case. The inhibition result in assay [19], in assay [20], in assay [23], in assay [24] and in [25] was “inactive” in each case. In addition, the result in assay [21] was inactive.

On to `CC(Oc1cccc(Cl)c1)C(=O)NN` (configuration not stated), for which the Activity was found to be 95.3% in assay [1], 100% in [2] and 90.8% in assay [3]. The result in [21] was inactive.

`C/C(=N\NC(=O)c1cc2ccccc2cc1O)c1ccc2c(c1)OCO2`: the Activity in assay [1] worked out at 52%; in [2], 73%. In addition, in assay [21], the outcome was inactive.

Turning to `CC[n+]1c(-c2ccccc2)c2cc(N)ccc2c2ccc(N)cc21`, in [21], the result was Active.

`NNC(=O)COc1cccc2ccccc12`: the figures for the Activity in assay [1], in assay [2] and in [3] were 78.7%, 53.6% and 88.5%, respectively. Besides, in [21], the result was inactive.

Consider `CCCN1CCC(=NNC(=O)c2ccc(Cl)cc2Cl)CC1`, for which the figures for the Activity in [1] and in [2] were 91.2% and 96.1%, respectively. Moreover, in assay [21], the result was inactive.

On to `COc1cc(C)c(S(=O)(=O)n2cc(C)nc2-c2ccccc2)cc1C`, for which the Activity in assay [1] stood at 100%; in [2] it was 109%. Also, the result in assay [21] was inactive.

As to `O=C(N/N=C/c1ccc(F)cc1)c1sc2ccccc2c1Cl`, the Activity in assay [1] is 86.7%; in assay [2] it was 89.2%; in assay [3], 81.7%. Moreover, the IC50 in [7], in assay [8] and in assay [9] was more than 50 µM throughout. Also, the inhibition result in assay [13], in [14], in assay [15], in assay [16], in assay [17] and in assay [18] was “inactive” in each case. Further, the inhibition entry in assay [19], in assay [20], in [23] and in assay [24] was “inactive” each time. The result in assay [21] was inactive.

`Cc1cc(C(=O)NNCc2ccccc2)no1`: the Activity in [1] was found to be 93.3%; in assay [2], 105%. The inhibition entry in assay [4], in [5] and in assay [6] was “inactive” throughout.

As to `C=CCC/C(C)=N\NC(=O)c1cccc(Br)c1`, the figures for the Activity in assay [1], in assay [2] and in assay [3] were 93.5%, 90.6% and 78.8%, respectively. Moreover, in assay [21], the outcome was inactive.

For the compound `NNc1nncc2ccccc12`, in assay [22], the Activity is 64%.

Take `O=C(CCNNC(=O)c1ccncc1)NCc1ccccc1`: the results for the Activity in [1] and in assay [2] were 96.4% and 108%, respectively.

For the compound `CCCC/C(C)=N\NC(=O)c1cccc(Br)c1`, the values for the Activity in assay [1], in [2] and in assay [3] were 101%, 92.6% and 90.9%, respectively. Besides, in assay [21], the outcome was inactive.

As for `CC1CCCC/C1=N/NC(=O)c1sc2ccccc2c1Cl` (configuration not stated), the values for the Activity in [1], in assay [2] and in assay [3] were 82.3%, 94.8% and 87.3%, respectively. Moreover, the concentration for half-maximal inhibition (IC50) in assay [7], in [8] and in assay [9] was more than 50 µM in each case. Also, the inhibition entry in [13], in [14], in assay [15], in [16], in assay [17] and in [18] was “inactive” throughout. Further, the inhibition result in assay [19], in assay [20], in assay [23] and in [24] was “inactive” in each case. In addition, the outcome in assay [21] was inactive.

With `O=C(O)C1=CC(=C(c2ccc(O)c(C(=O)O)c2)c2ccc(O)c(C(=O)O)c2)C=CC1=O`, the inhibition entry in [25] is “Active”.

Regarding `Cc1cc(OCC(=O)NN)cc(C)c1Cl`, the Activity in assay [1] is 83.7%; in [2] it was 75.1%; in [3] it was 95%. Also, in [21], the result was inactive.

Consider `O=C(NN=C1CCCCC1)c1ccc(Br)cc1`, for which the Activity in [1] turned out to be 97.6%; in assay [2], 84.5%; in assay [3], 91.7%. Also, the IC50 in assay [7], in assay [8] and in assay [9] was more than 50 µM throughout. Further, the inhibition result in [13], in assay [14], in assay [15], in assay [16], in assay [17] and in assay [18] was “inactive” each time. The inhibition result in [19], in assay [20], in [23] and in [24] was “inactive” in each case. For the same compound, the outcome in assay [21] was inactive.
